Earlier results as cited in paper PMC4415995 (Advances in Therapy, 2015).

System: patients with T2DM
Settings: cited from earlier work

| Structure (SMILES) | maximal UGE |
| --- | --- |
| Cc1ccc([C@@H]2O[C@H](CO)[C@@H](O)[C@H](O)[C@H]2O)cc1Cc1ccc(-c2ccc(F)cc2)s1 [canagliflozin] | 85 to 100 g |
| CCOc1ccc(Cc2cc([C@@H]3O[C@H](CO)[C@@H](O)[C@H](O)[C@H]3O)ccc2Cl)cc1 [dapagliflozin] | 85 to 100 g |
| OC[C@H]1O[C@@H](c2ccc(Cl)c(Cc3ccc(O[C@H]4CCOC4)cc3)c2)[C@H](O)[C@@H](O)[C@@H]1O [empagliflozin] | 85 to 100 g |
| OC[C@H]1O[C@@H](c2ccc(F)c(Cc3cc4ccccc4s3)c2)[C@H](O)[C@@H](O)[C@@H]1O [ipragliflozin] | 85 to 100 g |
